For 9 compounds, AC50, IC50 and EC50 results are on record in ChEMBL document CHEMBL1201862, “PubChem BioAssay data set” (2004).

Assay [1] has as its target T1, Microphthalmia-associated transcription factor (Homo sapiens, UniProt O75030).
T1 sequence (O75030 whole entry): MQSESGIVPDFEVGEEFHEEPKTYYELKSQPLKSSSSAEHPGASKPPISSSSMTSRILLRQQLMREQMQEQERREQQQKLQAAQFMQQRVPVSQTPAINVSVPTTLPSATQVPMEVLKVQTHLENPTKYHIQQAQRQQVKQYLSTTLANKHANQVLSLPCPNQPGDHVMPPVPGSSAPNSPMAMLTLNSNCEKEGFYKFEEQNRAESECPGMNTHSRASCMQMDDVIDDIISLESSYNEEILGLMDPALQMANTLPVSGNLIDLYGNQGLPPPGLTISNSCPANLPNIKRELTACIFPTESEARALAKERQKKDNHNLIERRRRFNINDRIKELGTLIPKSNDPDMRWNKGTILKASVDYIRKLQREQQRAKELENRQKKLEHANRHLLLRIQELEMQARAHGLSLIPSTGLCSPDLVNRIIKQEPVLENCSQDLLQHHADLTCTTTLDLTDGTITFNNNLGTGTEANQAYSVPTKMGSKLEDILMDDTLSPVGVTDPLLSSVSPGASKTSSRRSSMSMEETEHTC
Kind of assay: reducers of TRPM1 reporter luminescence, concentration series – cell-based, SK-MEL-5, cherry-picked, set 3, MITF inhibitor project, dose response (AID 493073).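 Also: SK-MEL-5 melanoma cells with luciferase driven by the MITF target TRPM1 promoter.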 Format: functional.

Assay [2] is described as follows: HEK-293T cell viability reduction – luminescence, B-cell screen hits, cytotoxicity control for BCR NF-kB inhibitor project, dose response (AID 489021).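 Also: HEK-293T cells carrying an NF-kB luciferase reporter; cells exposed to compound for about 14 hours before viability readout.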 Format: functional, cell-based.
Assay [3] has as its target T2, Leucine aminopeptidase (Plasmodium falciparum 3D7, UniProt Q8IL11).
T2 sequence (Q8IL11 whole entry): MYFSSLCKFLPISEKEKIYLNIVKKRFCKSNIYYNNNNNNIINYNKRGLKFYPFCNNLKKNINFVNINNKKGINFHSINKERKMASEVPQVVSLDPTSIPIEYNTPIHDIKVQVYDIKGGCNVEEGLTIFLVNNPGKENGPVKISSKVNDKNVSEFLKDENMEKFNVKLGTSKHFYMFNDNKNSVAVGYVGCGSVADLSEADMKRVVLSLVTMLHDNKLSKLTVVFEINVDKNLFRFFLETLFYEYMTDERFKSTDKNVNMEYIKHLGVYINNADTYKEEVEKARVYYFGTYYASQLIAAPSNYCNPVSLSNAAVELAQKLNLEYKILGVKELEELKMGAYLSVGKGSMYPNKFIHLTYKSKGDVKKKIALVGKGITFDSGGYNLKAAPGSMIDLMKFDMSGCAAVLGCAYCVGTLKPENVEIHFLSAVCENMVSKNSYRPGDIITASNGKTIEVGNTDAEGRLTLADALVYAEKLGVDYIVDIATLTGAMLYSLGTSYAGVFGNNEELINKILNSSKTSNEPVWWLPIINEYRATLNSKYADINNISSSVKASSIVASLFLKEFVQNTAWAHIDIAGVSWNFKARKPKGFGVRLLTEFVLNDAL
The assay is described as follows: P. falciparum M17LAP inhibitors, primary screen, biochemical, fluorogenic H-Leu-NHMec substrate, 1536-well (AID 1619). Format: functional.

Assay [4] concerns the target T3, Ubiquitin-conjugating enzyme E2 N (Homo sapiens, UniProt P61088).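 Also: Dose-response confirmation in a TR-FRET assay detecting UBC13-driven polyubiquitin chain formation, inhibition measured.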
T3 sequence (P61088 whole entry): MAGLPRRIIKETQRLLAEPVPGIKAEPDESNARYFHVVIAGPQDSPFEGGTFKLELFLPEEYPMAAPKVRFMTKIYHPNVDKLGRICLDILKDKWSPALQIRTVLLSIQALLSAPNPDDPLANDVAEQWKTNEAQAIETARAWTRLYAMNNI
It counts as functional.

For assay [5], the system named is HEK293. Kind of assay: cells. Format: functional, cell-based. The conditions noted are these: Homo sapiens.
Assay [6] addresses Nucleotide-binding oligomerization domain-containing protein 2 (Homo sapiens, UniProt Q9HC29). The assay is described as follows: inhibition of NOD2-driven NF-kB reporter – cell-based, luminescence, uHTS, HEK293 (AID 1566). Format: functional.
Assay [7] concerns HEK293. Kind of assay: inhibition of NOD1-driven NF-kB reporter – cell-based, luminescence, uHTS, primary screen (AID 1578). Format: functional. The note with it: Homo sapiens.
For assay [8], the system named is HEK293. The assay is described as follows: NOD2 signaling inhibitors in MDP-stimulated cells, cell-based, uHTS, luminescence (AID 2001). It counts as functional. The conditions noted are these: Homo sapiens.
Assay [9] has as its system HEK293. The assay is described as follows: cells. Format: functional, cell-based. The conditions noted are these: Homo sapiens. The source holds these as a separate data set.
Assay [10] concerns HEK293. Kind of assay: cells. It counts as functional, cell-based. The note with it: Homo sapiens. This is another data set of the same source.
The nature of assay [11]: HIV-1 Vif–A3G interaction blockers – biochemical, TR-FRET, GST-Vif 1-94, biotin-A3G peptide, dose response retest, primary screen (AID 1117319).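 Also: TR-FRET signal of purified GST-Vif binding a biotinylated A3G peptide; inhibitors lower the FRET signal by blocking Vif and A3G binding.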 It counts as functional. (In general: In TR-FRET formats the signal depends on donor and acceptor labels being close together.)
The target of assay [12] is T4, Replicative DNA helicase DnaB (Mycobacterium tuberculosis, UniProt P9WMR3).
T4 sequence (P9WMR3 whole entry): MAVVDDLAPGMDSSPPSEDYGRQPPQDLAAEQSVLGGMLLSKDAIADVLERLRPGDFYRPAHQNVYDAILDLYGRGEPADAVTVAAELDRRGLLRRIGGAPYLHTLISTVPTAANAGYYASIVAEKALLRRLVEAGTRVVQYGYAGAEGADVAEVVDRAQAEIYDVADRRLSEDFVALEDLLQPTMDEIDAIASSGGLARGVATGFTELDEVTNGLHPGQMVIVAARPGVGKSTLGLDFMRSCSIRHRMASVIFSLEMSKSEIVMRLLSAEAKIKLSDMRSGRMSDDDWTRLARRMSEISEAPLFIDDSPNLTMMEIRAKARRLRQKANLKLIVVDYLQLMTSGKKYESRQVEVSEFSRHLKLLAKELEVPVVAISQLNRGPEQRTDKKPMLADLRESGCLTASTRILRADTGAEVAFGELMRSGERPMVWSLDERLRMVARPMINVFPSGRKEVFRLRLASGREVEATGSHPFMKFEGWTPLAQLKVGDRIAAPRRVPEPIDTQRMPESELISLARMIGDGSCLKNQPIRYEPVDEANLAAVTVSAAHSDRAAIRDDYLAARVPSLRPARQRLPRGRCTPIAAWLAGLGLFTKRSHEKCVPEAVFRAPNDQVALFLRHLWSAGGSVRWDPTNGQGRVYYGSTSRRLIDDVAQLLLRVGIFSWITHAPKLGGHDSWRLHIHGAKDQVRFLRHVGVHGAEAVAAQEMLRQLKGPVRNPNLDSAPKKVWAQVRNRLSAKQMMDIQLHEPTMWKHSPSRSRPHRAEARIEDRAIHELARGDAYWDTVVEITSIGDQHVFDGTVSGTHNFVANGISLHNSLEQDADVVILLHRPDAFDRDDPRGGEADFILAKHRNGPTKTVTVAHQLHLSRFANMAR
Kind of assay: DnaB intein splicing inhibitors, dose response, biochemical, cell-free fluorescence (AID 449749). It counts as functional.

Assay [13] deals with T5, Protein RecA (Mycobacterium tuberculosis, UniProt P9WHJ3).
T5 sequence (P9WHJ3 whole entry): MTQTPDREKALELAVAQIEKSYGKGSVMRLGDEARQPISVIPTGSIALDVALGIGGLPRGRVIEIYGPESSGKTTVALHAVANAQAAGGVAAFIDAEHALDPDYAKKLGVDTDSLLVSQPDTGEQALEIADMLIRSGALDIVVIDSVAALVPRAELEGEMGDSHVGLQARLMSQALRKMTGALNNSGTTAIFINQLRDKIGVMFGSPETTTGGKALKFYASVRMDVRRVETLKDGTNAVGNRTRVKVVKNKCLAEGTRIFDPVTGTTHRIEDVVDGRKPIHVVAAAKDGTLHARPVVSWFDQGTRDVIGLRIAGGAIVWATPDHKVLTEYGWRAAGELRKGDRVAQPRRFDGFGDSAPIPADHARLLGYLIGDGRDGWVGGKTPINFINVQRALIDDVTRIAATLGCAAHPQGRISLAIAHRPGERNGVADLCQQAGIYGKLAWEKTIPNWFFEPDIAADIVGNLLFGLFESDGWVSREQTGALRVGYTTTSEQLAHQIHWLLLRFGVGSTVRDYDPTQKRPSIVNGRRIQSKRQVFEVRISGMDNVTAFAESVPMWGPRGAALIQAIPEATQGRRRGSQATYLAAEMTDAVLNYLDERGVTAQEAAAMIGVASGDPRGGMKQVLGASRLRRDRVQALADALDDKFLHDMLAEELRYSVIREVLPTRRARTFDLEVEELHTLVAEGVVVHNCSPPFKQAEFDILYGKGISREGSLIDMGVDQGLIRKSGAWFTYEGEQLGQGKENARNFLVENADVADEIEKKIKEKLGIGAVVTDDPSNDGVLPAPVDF
Kind of assay: Fluorescence Cell-Free Homogeneous Dose Retest to Identify Inhibitors of RecA-Intein Splicing Activity. [Related pubchem assays (depositor defined):AID2097, AID2223, AID489010, AID492950]. It counts as functional.

In assay [14] the target is Cytochrome P450 3A4 (Homo sapiens, UniProt P08684). The note with it: Potency.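 Also: confirmatory qHTS run detecting inhibitors and substrates of CYP3A4.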

The source made the active and inactive calls.

Cytochrome P450 3A4, sequence (P08684 whole entry): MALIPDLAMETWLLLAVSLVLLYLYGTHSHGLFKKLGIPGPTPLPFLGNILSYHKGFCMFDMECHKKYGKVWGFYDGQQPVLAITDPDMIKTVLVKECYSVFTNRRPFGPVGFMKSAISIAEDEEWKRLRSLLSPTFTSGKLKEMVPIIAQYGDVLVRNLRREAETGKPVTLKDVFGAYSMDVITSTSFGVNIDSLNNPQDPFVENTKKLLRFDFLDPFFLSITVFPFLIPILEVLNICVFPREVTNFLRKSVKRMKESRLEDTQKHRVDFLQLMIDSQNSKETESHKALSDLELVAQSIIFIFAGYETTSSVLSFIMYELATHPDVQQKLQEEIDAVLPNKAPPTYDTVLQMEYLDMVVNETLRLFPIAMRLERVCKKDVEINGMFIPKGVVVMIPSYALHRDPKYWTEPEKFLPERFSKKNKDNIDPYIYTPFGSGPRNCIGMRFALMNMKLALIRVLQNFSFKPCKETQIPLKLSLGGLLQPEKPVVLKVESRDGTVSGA
Nucleotide-binding oligomerization domain-containing protein 2, sequence (Q9HC29 whole entry, the tested form may be a part): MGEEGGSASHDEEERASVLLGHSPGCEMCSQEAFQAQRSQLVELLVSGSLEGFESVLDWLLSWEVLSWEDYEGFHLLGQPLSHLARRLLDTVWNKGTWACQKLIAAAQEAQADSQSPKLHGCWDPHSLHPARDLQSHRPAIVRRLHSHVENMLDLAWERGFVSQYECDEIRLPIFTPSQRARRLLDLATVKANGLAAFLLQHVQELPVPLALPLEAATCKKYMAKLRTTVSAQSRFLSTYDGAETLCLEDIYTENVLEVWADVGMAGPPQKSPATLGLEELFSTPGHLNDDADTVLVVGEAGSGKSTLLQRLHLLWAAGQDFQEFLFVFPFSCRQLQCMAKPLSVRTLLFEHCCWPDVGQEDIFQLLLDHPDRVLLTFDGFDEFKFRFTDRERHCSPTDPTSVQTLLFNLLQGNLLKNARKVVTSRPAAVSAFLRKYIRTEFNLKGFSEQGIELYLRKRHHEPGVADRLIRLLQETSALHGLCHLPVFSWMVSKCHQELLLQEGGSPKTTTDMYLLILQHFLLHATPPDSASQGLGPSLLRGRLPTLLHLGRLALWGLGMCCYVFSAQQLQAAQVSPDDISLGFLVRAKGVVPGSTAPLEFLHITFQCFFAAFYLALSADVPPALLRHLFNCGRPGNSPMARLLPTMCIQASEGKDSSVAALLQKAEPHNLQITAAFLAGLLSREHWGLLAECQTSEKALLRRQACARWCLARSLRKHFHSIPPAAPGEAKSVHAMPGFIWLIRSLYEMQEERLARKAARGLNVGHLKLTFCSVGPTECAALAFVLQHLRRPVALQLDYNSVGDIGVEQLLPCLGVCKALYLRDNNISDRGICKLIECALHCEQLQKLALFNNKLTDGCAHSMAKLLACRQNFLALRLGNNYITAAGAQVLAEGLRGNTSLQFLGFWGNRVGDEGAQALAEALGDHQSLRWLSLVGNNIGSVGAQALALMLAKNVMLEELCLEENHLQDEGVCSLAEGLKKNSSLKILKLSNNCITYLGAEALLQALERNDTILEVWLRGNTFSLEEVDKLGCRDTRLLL

A word on the AC50: it is the midpoint of the concentration-response curve, whichever way the signal moves. The term IC50 denotes the midpoint of a concentration-inhibition curve. As for `CC(C)c1ccc(/C=C2\SC(=S)N(CCC(=O)N3CCCCC3CCO)C2=O)cc1` (centres undefined), the AC50 in [1] is 7.43 µM (active). Further, the IC50 in assay [2] is 72.4 µM (inactive).
As for `CCc1cccc(NC(=O)c2ccc(CNc3c(N4CCCC4)c(=O)c3=O)cc2)c1`, the IC50 in assay [2] is > 80 µM (inactive).
Regarding `CCOc1cc(/C=C(/C#N)c2ccc(F)cc2)ccc1OCc1ccc(C(=O)O)o1`, in assay [3], the IC50 was 23.6 µM (active).
As for `CCC(=O)NC(C)c1cc(Cl)c2ccccc2c1O` (centres undefined), the IC50 in [4] is > 20 µM (inactive).
In general, EC50 refers to the concentration at which the effect is half-maximal. For the compound `COc1ccc(/C=C2\SC(=S)N(CCCC(=O)NNC(=O)c3ccccc3O)C2=O)cc1`, the AC50 in [1] is 1.38 µM (active). In addition, the IC50 is 5.39 µM (active) in [5]; > 80 µM (inactive) in assay [2]; 5.62 µM (active) in assay [8]; > 20 µM (inactive) in [9]; > 20 µM (inactive) in [10]. Besides, the EC50 is > 20 µM (inactive) in assay [6] and 8.29 µM (active) in [7].
In the case of `Cc1cc(-c2[nH]nc3c2C(c2cccc(O)c2)C(C#N)=C(N)O3)c(C)s1` (centres undefined), the IC50 is > 100 µM (active) in [11] and 52.8 µM (active) in [3]. Further, in assay [12], the AC50 is 4.58 µM (active). For the same compound, in assay [13], the 50% effective concentration (EC50) is 2.65 µM (active).
With `CCOC(=O)[C@]1(C(NC(=O)OC)c2ccccc2)CCCC1=O` (some centres undefined), the concentration at half-maximal activity (AC50) in assay [14] was 2.51 µM (inconclusive).
On the same count and under the same terms, the value for `COC(=O)c1cccc(C23CC4(C2)[C@H](CN(CC2CCCCC2)[C@@H]4c2ccccc2)C3c2ccc(C(F)(F)F)cc2)c1` (some centres undefined) was 15.8 µM (inconclusive).
On to `Cc1ccc(NC(=O)c2cc(=O)c3ccccc3o2)cc1S(=O)(=O)N1CCCCC1`, for which the EC50 in [6] was > 20 µM (inactive); in assay [7], 8.74 µM (active). Further, the IC50 in assay [8] was 9.78 µM (active); in assay [9] it was > 20 µM (inactive); in [10], > 20 µM (inactive).
